The structures appear in SMILES notation.

Common to all, as to assay: Minimal inhibitory concentration (M.I.C.), agar dilution method
Common to all, as to details: TSA, inoculum 10^7 /ml
For orientation: In agar dilution the substance is mixed into plates at graded concentrations.

One test concerns E. cloacae TN 1282. Format: cell-based, Enterobacter cloacae. An excerpt:
(§1) (a) Determination of minimal inhibitory concentrations (Tables 1 to 8):
(§2) Procedure: agar dilution method

The test system of the next test is K. pneumoniae DT. Format: cell-based, Klebsiella pneumoniae.
From the text: as §1, §2

For a further test, the system named is K. pneumoniae GN 3835. It is filed as cell-based, Klebsiella pneumoniae.
From the text: as §1, §2

The test system of a further test is P. vulgaris GN 4413. Format: cell-based, Proteus vulgaris.
From the text: as §1, §2

A further test deals with P. vulgaris IFO 3988. Format: cell-based, Proteus vulgaris.
From the text: as §1, §2

For the next test, the system named is S. marcescens TN 24. Format: cell-based, Serratia marcescens.
From the text: as §1, §2

Another test deals with S. marcescens IFO 12648. It is filed as cell-based, Serratia marcescens.
From the text: as §1, §2

The next test deals with P. mirabilis GN 4359. It is filed as cell-based, Proteus mirabilis.
From the text: as §1, §2

In the next test the test system is P. rettgeri GN4733. Format: cell-based, Proteus rettgeri.
From the text: as §1, §2

The subject of the next test is P. rettgeri TN 338. It is filed as cell-based, Proteus rettgeri.
From the text: as §1, §2

Another test has as its system S. aureus 209P. Format: cell-based, Staphylococcus aureus.
From the text: as §1, §2

For a further test, the system named is S. aureus 1840. Format: cell-based, Staphylococcus aureus.
From the text: as §1, §2

A further test relates to C. freundii GN 1706. It is filed as cell-based, Citrobacter freundii.
From the text: as §1, §2

The test system of a further test is C. freundii GN 99. It is filed as cell-based, Citrobacter freundii.
From the text: as §1, §2

Another test concerns P. morganii IFO 3168. It is filed as cell-based, Proteus morganii.
From the text: as §1, §2

For another test, the system named is E. coli NIHJ JC-2. Format: cell-based, Escherichia coli.
From the text: as §1, §2

The test system of a further test is E. coli T-7. It is filed as cell-based, Escherichia coli.
From the text: as §1, §2

A further test has as its system E. coli 0-111. It is filed as cell-based, Escherichia coli. The procedure, abridged: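 MIC against E. coli O-111 was determined by agar dilution.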

As for `CCCCNC(=O)O/N=C(\C(=O)NC1C(=O)N2C(C(=O)O)=C(CSc3nnnn3C)CSC12)c1csc(=N)[nH]1` (stereo not drawn) [Example II - 22], the “minimal inhibitory concentration (M.I.C.)” value came out at 12.5 with E. cloacae TN 1282; 0.1 with K. pneumoniae DT; 0.78 in the test on K. pneumoniae GN 3835; 12.5 in the test on P. vulgaris GN 4413; 0.1 with P. vulgaris IFO 3988; 5.13 with S. marcescens TN 24. Moreover, the “minimal inhibitory concentration (M.I.C.)” value in the test on S. marcescens IFO 12648 is on record as 6.25; with P. mirabilis GN 4359, 0.39; in the test on P. rettgeri GN4733, 0.1; with P. rettgeri TN 338 it was at most 0.012; with S. aureus 209P, 0.78; in the test with S. aureus 1840, 3.13. The “minimal inhibitory concentration (M.I.C.)” value in the test with C. freundii GN 1706 is on record as 0.78; in the test on C. freundii GN 99, 0.2; in the test with P. morganii IFO 3168, 0.78; in the test on E. coli NIHJ JC-2, 0.39; in the test with E. coli T-7 it was 6.25; with E. coli 0-111 it was 0.024.

Turning to `CC(C)NC(=O)O/N=C(\C(=O)NC1C(=O)N2C(C(=O)O)=C(COC(N)=O)CSC12)c1csc(=N)[nH]1` (stereo not drawn) [Example II - 17], the “minimal inhibitory concentration (M.I.C.)” value in the test on E. cloacae TN 1282 was 6.25; in the test with K. pneumoniae DT, 0.1; in the test on K. pneumoniae GN 3835, 0.39; in the test on P. vulgaris GN 4413, 100; in the test on P. vulgaris IFO 3988 it was 0.39; with S. marcescens TN 24, 25. The “minimal inhibitory concentration (M.I.C.)” value was 6.25 with S. marcescens IFO 12648; 0.1 in the test with P. mirabilis GN 4359; 0.1 in the test with P. rettgeri GN4733; at most 0.012 with P. rettgeri TN 338; 1.56 with S. aureus 209P; 3.13 in the test with S. aureus 1840. Also, the “minimal inhibitory concentration (M.I.C.)” value with C. freundii GN 1706 is given as 0.78; with C. freundii GN 99, 0.39; with P. morganii IFO 3168, 1.56; with E. coli NIHJ JC-2 it was 0.39; in the test on E. coli T-7, 3.13; with E. coli 0-111 it was 0.05.

Turning to `CC1=C(C(=O)O)N2C(=O)C(NC(=O)/C(=N\OC(=O)NC(C)C)c3csc(=N)[nH]3)C2SC1` (stereo not drawn) [Example II - 19], the “minimal inhibitory concentration (M.I.C.)” value with E. cloacae TN 1282 is reported as 100; with K. pneumoniae DT, 3.13; with K. pneumoniae GN 3835 it was 6.25; in the test on P. vulgaris GN 4413 it was 50; in the test on P. vulgaris IFO 3988, 12.5; with S. marcescens TN 24 it was above 100. Further, the “minimal inhibitory concentration (M.I.C.)” value is 100 in the test on S. marcescens IFO 12648; 3.13 in the test with P. mirabilis GN 4359; 0.39 in the test with P. rettgeri GN4733; 0.1 in the test on P. rettgeri TN 338; 25 in the test on S. aureus 209P; 25 in the test with S. aureus 1840. Moreover, the “minimal inhibitory concentration (M.I.C.)” value is listed as 12.5 in the test with C. freundii GN 1706; 12.5 in the test on C. freundii GN 99; 50 with P. morganii IFO 3168; 6.25 in the test on E. coli NIHJ JC-2; 25 in the test with E. coli T-7; 3.13 with E. coli 0-111.

As for `CCCNC(=O)O/N=C(\C(=O)NC1C(=O)N2C(C(=O)O)=C(CSc3nnnn3C)CSC12)c1csc(=N)[nH]1` (stereo not drawn) [Example II - 14], the “minimal inhibitory concentration (M.I.C.)” value was 3.13 in the test on E. cloacae TN 1282; 0.1 with K. pneumoniae DT; 0.39 with K. pneumoniae GN 3835; 12.5 in the test with P. vulgaris GN 4413; 0.1 with P. vulgaris IFO 3988; 3.13 in the test with S. marcescens TN 24. Moreover, the “minimal inhibitory concentration (M.I.C.)” value with S. marcescens IFO 12648 was 3.13; in the test with P. mirabilis GN 4359, 0.39; with P. rettgeri GN4733, 0.2; in the test on P. rettgeri TN 338, at most 0.012; in the test on S. aureus 209P, 1.56; with S. aureus 1840, 3.13. For the same compound, the “minimal inhibitory concentration (M.I.C.)” value stood at 0.39 with C. freundii GN 1706; 0.2 in the test on C. freundii GN 99; 0.2 in the test on P. morganii IFO 3168; 0.39 with E. coli NIHJ JC-2; 3.13 in the test with E. coli T-7; 0.024 in the test on E. coli 0-111.

`CNC(=O)O/N=C(\C(=O)NC1C(=O)N2C(C(=O)O)=C(CSc3nnnn3CCO)CSC12)c1csc(=N)[nH]1` (stereo not drawn) [Example IV - 4]: the “minimal inhibitory concentration (M.I.C.)” value with E. cloacae TN 1282 is reported as 3.13; in the test with K. pneumoniae DT, at most 0.2; in the test on K. pneumoniae GN 3835, 0.39; in the test with P. vulgaris GN 4413, 12.5; in the test with P. vulgaris IFO 3988 it was at most 0.2; in the test on S. marcescens TN 24 it was 3.13. Besides, the “minimal inhibitory concentration (M.I.C.)” value is given as 3.13 in the test on S. marcescens IFO 12648; at most 0.2 with P. mirabilis GN 4359; 0.39 with P. rettgeri GN4733; at most 0.2 in the test on P. rettgeri TN 338; 3.13 in the test on S. aureus 209P; 3.13 in the test with S. aureus 1840. In addition, the “minimal inhibitory concentration (M.I.C.)” value with C. freundii GN 1706 is recorded as 0.39; with C. freundii GN 99, at most 0.2; in the test with P. morganii IFO 3168 it was at most 0.2; in the test on E. coli NIHJ JC-2, at most 0.2; in the test on E. coli T-7, 3.13; in the test with E. coli 0-111, at most 0.2.

For `CC(=O)OCC1=C(C(=O)O)N2C(=O)C(NC(=O)/C(=N\OC(=O)NC(C)C)c3csc(=N)[nH]3)C2SC1` (stereo not drawn) [Example II - 16], the “minimal inhibitory concentration (M.I.C.)” value in the test with E. cloacae TN 1282 amounted to 6.25; in the test on K. pneumoniae DT, 0.1; with K. pneumoniae GN 3835 it was 0.78; with P. vulgaris GN 4413, 25; with P. vulgaris IFO 3988, 0.39; in the test with S. marcescens TN 24 it was 25. Besides, the “minimal inhibitory concentration (M.I.C.)” value is recorded as 6.25 in the test with S. marcescens IFO 12648; 0.1 with P. mirabilis GN 4359; 0.2 in the test on P. rettgeri GN4733; at most 0.012 in the test on P. rettgeri TN 338; 1.56 with S. aureus 209P; 3.13 with S. aureus 1840. For the same compound, the “minimal inhibitory concentration (M.I.C.)” value in the test with C. freundii GN 1706 is given as 0.78; in the test with C. freundii GN 99, 0.39; in the test with P. morganii IFO 3168, 0.78; with E. coli NIHJ JC-2, 0.39; in the test with E. coli T-7 it was 3.13; in the test with E. coli 0-111, 0.024.
